Data taken from paper PMC12521730, “Quantitative dual-isotope preclinical SPECT/CT imaging and biodistribution of the mercury-197m/g theranostic pair with [^197m/gHg]HgCl2 and a [^197m/gHg]Hg-tetrathiol complex as a platform for radiopharmaceutical development” (EJNMMI Radiopharmacy and Chemistry, 2025).

Experiment: Ex vivo biodistribution (gamma counter)
Type: in vivo, healthy male C57BL/6 mice
Settings: 2 h post administration
Experimental: For animal injection, the tracer was prepared at high molar activity. Radiolabeling of H4Tetrathiol (10^–2 M in DMSO; 40 μL for imaging, 20 μL for bioD) (or DMSO, for [^197m/gHg]HgCl2 mice) with [^197m/gHg]HgCl2 (imaging: 26.7 MBq total m + g, 62 μL; bioD: 13.04 MBq total m + g, 31 μL) was performed in a mixture of ammonium acetate buffer (1 M; pH 7; 198 μL for imaging or 149 μL for bioD) and 6 M NaOH (72 μL or 38 μL required to achieve a pH of 7.5 after addition of activity, for imaging or BioD labeling, respectively). The reaction was allowed to stand for 1 h at 37 °C and quantitative (> 99%) non-isolated percentage radiochemical yield (%RCY) was confirmed via the iTLC methods mentioned above. Further, 100 µL of the reaction was diluted with 50 µL of PBS Tween-20 (0.01 M sodium phosphate, 0.15 M NaCl, 0.05% Tween-20) for imaging mice, or 50 µL of the reaction was diluted with 100 µL of PBS Tween-20 for BioD mice. The tracers were prepared immediately before injection to avoid radiolysis and minimize the tracer loss to any surfaces due to its lipophilicity. The injected doses of each isomer, ^197mHg and ^197gHg, were quantified by measuring an aliquot of known volume of each tracer preparation via HPGe gamma spectroscopy and decay corrected for time of injection using the Eqs. (1) and (2).
The study was conducted in compliance with the guidelines set by the Canadian Council on Animal Care (CCAC) and approved by the Animal Care Committee (ACC) at the University of British Columbia (A20-0132). A total of eight healthy male C57BL/6 mice weighing approximately 30 g for group 1 and 25 g for group 2 were used in the study. The mice were divided into two experimental groups: group 1 (n = 4) received free [^197m/gHg]HgCl2, while group 2 (n = 4) received [^197m/gHg]Hg-Tetrathiol. Within each group, one mouse was allocated for imaging, while the rest were designated for ex vivo biodistribution analysis. For SPECT imaging, the designated mice were anesthetized using isoflurane via a precision vaporizer. […] Once anesthetized, each imaging mouse received an intravenous (IV) injection via the lateral tail vein of 150 μL of [^197m/gHg]HgCl2 (0.492 MBq ^197mHg + 3.171 MBq ^197gHg) or [^197m/gHg]Hg-Tetrathiol (0.899 MBq ^197mHg + 4.230 MBq ^197gHg) in PBS Tween-20 (0.01 M Na Phosphate, 0.15 M NaCl, 0.05% Tween-20).
Mice received an IV injection of [^197m/gHg]HgCl2 (0.275 MBq ^197mHg + 1.758 MBq ^197gHg, 150 μL) or [^197m/gHg]Hg-Tetrathiol (0.384 MBq ^197mHg + 1.733 MBq ^197gHg, 150 μL) (n = 3 per group) via the lateral tail vein using a Tailveiner restrainer. After the injection, the mice were returned to their experimental cages and allowed unrestricted movement. Biodistribution studies were conducted 2 h after administration. Mice were humanely euthanized with an overdose of isoflurane followed by cardiac puncture to collect blood pool activity. The organs of interest were fully extracted, cleaned of blood without rinsing, weighed, and analysed for radioactivity using a calibrated gamma counter with the 55–93 keV energy window for ^197gHg and the 110–160 keV energy window for ^197mHg (Packard Cobra II, Perkin Elmer, Waltham, MA, USA). The stomach and intestines were carefully cleaned prior to analysis to remove residual contents. For tissues and fluids that could not be fully removed (muscle, blood and bone) activity values were extrapolated based on standardised organ weights for age- and sex-matched mice tables to ensure accurate normalization (Davies and Morris [1993]; Foster et al. [2014]). The stomach and whole intestines were cleaned before analysis. The radioactivity measurements were decay corrected for time of injection using the Eqs. (1) and (2). The results are reported as the percentage of the injected activity per gram of tissue (%IA/g) and percentage of the injected activity per tissue (%IA/organ).

## [Cl][Hg][Cl] [[^197m/gHg]HgCl2]
Hg-197g
  Animal 4 (%IA/g) g: kidneys: 120 %IA/g
  Animal 4 (%IA/g) g: large intestine: 2.62 %IA/g
  Animal 4 (%IA/g) g: liver: 4.99 %IA/g
  Animal 4 (%IA/g) g: lungs: 3.08 %IA/g
  Animal 4 (%IA/g) g: muscle: 0.53 %IA/g
  Animal 4 (%IA/g) g: pancreas: 1.46 %IA/g
  Animal 4 (%IA/g) g: small intestine: 2.62 %IA/g
  Animal 4 (%IA/g) g: spleen: 3.58 %IA/g
  Animal 4 (%IA/g) g: stomach: 1.76 %IA/g
  Animal 4 (%IA/g) g: tail: 3.76 %IA/g
  Animal 4 (%IA/g) g: urine: 3.49 %IA/g
  Average (%IA/Organ): bladder: 0.06 %IA/Organ
  Average (%IA/Organ): blood: 5.81 %IA/Organ
  Average (%IA/Organ): bone: 4.16 %IA/Organ
  Average (%IA/Organ): brain: 0.05 %IA/Organ
  Average (%IA/Organ): feces: 0.05 %IA/Organ
  Average (%IA/Organ): heart: 0.25 %IA/Organ
  Average (%IA/Organ): kidneys: 48.31 %IA/Organ
  Average (%IA/Organ): large intestine: 0.57 %IA/Organ
  Average (%IA/Organ): liver: 7.78 %IA/Organ
  Average (%IA/Organ): lungs: 0.58 %IA/Organ
  Average (%IA/Organ): muscle: 8.08 %IA/Organ
  Average (%IA/Organ): pancreas: 0.25 %IA/Organ
  Average (%IA/Organ): small intestine: 0.70 %IA/Organ
  Average (%IA/Organ): spleen: 0.31 %IA/Organ
  Average (%IA/Organ): stomach: 0.20 %IA/Organ
  Average (%IA/Organ): tail: 2.59 %IA/Organ
  Average (%IA/Organ): urine: 0.65 %IA/Organ
  Average Hg-197g (%IA/g): bladder: 2.10 %IA/g
  Average Hg-197g (%IA/g): blood: 3.53 %IA/g
  Average Hg-197g (%IA/g): bone: 1.94 %IA/g
  Average Hg-197g (%IA/g): brain: 0.13 %IA/g
  Average Hg-197g (%IA/g): feces: 1.29 %IA/g
  Average Hg-197g (%IA/g): heart: 1.79 %IA/g
  Average Hg-197g (%IA/g): kidneys: 111.17 %IA/g
  Average Hg-197g (%IA/g): large intestine: 2.77 %IA/g
  Average Hg-197g (%IA/g): liver: 5.03 %IA/g
  Average Hg-197g (%IA/g): lungs: 3.83 %IA/g
  Average Hg-197g (%IA/g): muscle: 0.63 %IA/g
  Average Hg-197g (%IA/g): pancreas: 1.48 %IA/g
  Average Hg-197g (%IA/g): small intestine: 3.17 %IA/g
  Average Hg-197g (%IA/g): spleen: 3.93 %IA/g
  Average Hg-197g (%IA/g): stomach: 1.87 %IA/g
  Average Hg-197g (%IA/g): tail: 5.12 %IA/g
  Average Hg-197g (%IA/g): urine: 4.08 %IA/g
Hg-197m
  Animal 1 (%IA/g) m: bladder: 1.81 %IA/g
  Animal 1 (%IA/g) m: blood: 8.43 %IA/g
  Animal 1 (%IA/g) m: bone: 3.43 %IA/g
  Animal 1 (%IA/g) m: brain: 0.27 %IA/g
  Animal 1 (%IA/g) m: feces: 1.31 %IA/g
  Animal 1 (%IA/g) m: heart: 3.85 %IA/g
  Animal 1 (%IA/g) m: large intestine: 5.33 %IA/g
  Animal 1 (%IA/g) m: lungs: 8.68 %IA/g
  Animal 1 (%IA/g) m: muscle: 1.38 %IA/g
  Animal 1 (%IA/g) m: pancreas: 2.69 %IA/g
  Animal 1 (%IA/g) m: small intestine: 6.99 %IA/g
  Animal 1 (%IA/g) m: spleen: 8.59 %IA/g
  Animal 1 (%IA/g) m: stomach: 3.64 %IA/g
  Animal 1 (%IA/g) m: tail: 16.30 %IA/g
  Animal 1 (%IA/g) m: urine: 8.15 %IA/g
  Animal 2 (%IA/g) m: bladder: 4.08 %IA/g
  Animal 2 (%IA/g) m: blood: 5.94 %IA/g
  Animal 2 (%IA/g) m: bone: 2.79 %IA/g
  Animal 2 (%IA/g) m: brain: 0.15 %IA/g
  Animal 2 (%IA/g) m: feces: 0.59 %IA/g
  Animal 2 (%IA/g) m: heart: 2.24 %IA/g
  Animal 2 (%IA/g) m: large intestine: 3.94 %IA/g
  Animal 2 (%IA/g) m: liver: 10.33 %IA/g
  Animal 2 (%IA/g) m: lungs: 4.50 %IA/g
  Animal 2 (%IA/g) m: muscle: 0.74 %IA/g
  Animal 2 (%IA/g) m: pancreas: 1.94 %IA/g
  Animal 2 (%IA/g) m: small intestine: 4.20 %IA/g
  Animal 2 (%IA/g) m: spleen: 4.74 %IA/g
  Animal 2 (%IA/g) m: stomach: 2.42 %IA/g
  Animal 2 (%IA/g) m: tail: 7.26 %IA/g
  Animal 2 (%IA/g) m: urine: 5.31 %IA/g
  Animal 3 (%IA/g) m: bladder: 2.14 %IA/g
  Animal 3 (%IA/g) m: blood: 5.50 %IA/g
  Animal 3 (%IA/g) m: bone: 2.67 %IA/g
  Animal 3 (%IA/g) m: brain: 0.17 %IA/g
  Animal 3 (%IA/g) m: feces: 3.93 %IA/g
  Animal 3 (%IA/g) m: heart: 2.10 %IA/g
  Animal 3 (%IA/g) m: large intestine: 3.68 %IA/g
  Animal 3 (%IA/g) m: liver: 10.14 %IA/g
  Animal 3 (%IA/g) m: lungs: 5.07 %IA/g
  Animal 3 (%IA/g) m: muscle: 0.79 %IA/g
  Animal 3 (%IA/g) m: pancreas: 2.04 %IA/g
  Animal 3 (%IA/g) m: small intestine: 4.50 %IA/g
  Animal 3 (%IA/g) m: spleen: 4.18 %IA/g
  Animal 3 (%IA/g) m: stomach: 2.28 %IA/g
  Animal 3 (%IA/g) m: tail: 7.21 %IA/g
  Animal 3 (%IA/g) m: urine: 5.63 %IA/g
  Animal 4 (%IA/g) m: bladder: 4.20 %IA/g
  Animal 4 (%IA/g) m: blood: 4.96 %IA/g
  Animal 4 (%IA/g) m: bone: 2.78 %IA/g
  Animal 4 (%IA/g) m: brain: 0.17 %IA/g
  Animal 4 (%IA/g) m: feces: 1.53 %IA/g
  Animal 4 (%IA/g) m: heart: 2.14 %IA/g
  Animal 4 (%IA/g) m: large intestine: 3.97 %IA/g
  Animal 4 (%IA/g) m: liver: 10.31 %IA/g
  Animal 4 (%IA/g) m: lungs: 4.53 %IA/g
  Animal 4 (%IA/g) m: muscle: 0.81 %IA/g
  Animal 4 (%IA/g) m: pancreas: 2.24 %IA/g
  Animal 4 (%IA/g) m: small intestine: 3.96 %IA/g
  Animal 4 (%IA/g) m: spleen: 5.42 %IA/g
  Animal 4 (%IA/g) m: stomach: 2.56 %IA/g
  Animal 4 (%IA/g) m: tail: 5.98 %IA/g
  Animal 4 (%IA/g) m: urine: 5.02 %IA/g
  Average Hg-197m (%IA/g): bladder: 3.06 %IA/g
  Average Hg-197m (%IA/g): blood: 6.21 %IA/g
  Average Hg-197m (%IA/g): bone: 2.92 %IA/g
  Average Hg-197m (%IA/g): brain: 0.19 %IA/g
  Average Hg-197m (%IA/g): feces: 1.84 %IA/g
  Average Hg-197m (%IA/g): heart: 2.58 %IA/g
  Average Hg-197m (%IA/g): large intestine: 4.23 %IA/g
  Average Hg-197m (%IA/g): liver: 10.26 %IA/g
  Average Hg-197m (%IA/g): lungs: 5.70 %IA/g
  Average Hg-197m (%IA/g): muscle: 0.93 %IA/g
  Average Hg-197m (%IA/g): pancreas: 2.23 %IA/g
  Average Hg-197m (%IA/g): small intestine: 4.92 %IA/g
  Average Hg-197m (%IA/g): spleen: 5.73 %IA/g
  Average Hg-197m (%IA/g): stomach: 2.72 %IA/g
  Average Hg-197m (%IA/g): tail: 9.19 %IA/g
  Average Hg-197m (%IA/g): urine: 6.03 %IA/g
